Patent US9510598B2, “Nitrogen-containing heterocyclic compounds for plant disease control” (BAYER CROPSCIENCE AG, priority 2012, dated 2016)
Where two headings read alike, the source gives them in different places.

How the values were obtained:
[1] = format: physicochemical
Botrytis cinerea = assay: In vivo preventive test on Botrytis cinerea (grey mould); conditions: 500 ppm; gherkin plants sprayed 24 hours before contamination; grading 4-5 days after contamination vs control plants
Method: Gherkin plants (“Vert petit de Paris” variety), sown in starter cups on a 50/50 peat soil-pozzolana substrate and grown at 24° C., are treated at the Z11 cotyledon stage by spraying with the active ingredient prepared as described above. Plants, used as controls, are treated with the mixture of acetone/tween/DMSO/water not containing the active material. After 24 hours, the plants are contaminated by spraying the cotyledons with an aqueous suspension of cryopreserved Botrytis cinerea spores (50 000 spores per ml). The spores are suspended in a nutrient solution composed of 10 g/L of PDB, 50 g/L of D-Fructose, 2 g/L of NH4NO3 and 1 g/L of KH2PO4. The contaminated gherkin plants are incubated at 17° C. and at 80% relative humidity. Grading (% of efficacy) is carried out 4-5 days after the contamination, in comparison with the control plants.

Septoria tritici = assay: In vivo preventive test on Septoria tritici (leaf spot on wheat); conditions: 500 ppm; wheat plants sprayed 24 hours before contamination; grading 21 to 28 days after contamination vs control plants
Method: Wheat plants (“Scipion” variety), sown in starter cups on a 50/50 peat soil-pozzolana substrate and grown at 22° C. (12 h)/20° C. (12 h), are treated at the 1-leaf stage (10 cm height) by spraying with the active ingredient prepared as described above. Plants, used as controls, are treated with the mixture of acetone/tween/DMSO/water not containing the active material. After 24 hours, the plants are contaminated by spraying the leaves with an aqueous suspension of cryopreserved Septoria tritici spores (500 000 spores per ml). […] Grading (% of efficacy) is carried out 21 to 28 days after the contamination, in comparison with the control plants.

[2] = method [a]: HPLC/LC-MS on reversed phase at pH 2.7, 0.1% formic acid in water / acetonitrile, linear gradient 10% to 95% acetonitrile
[3] = HPLC on reversed phase columns, method [a]: pH 2.7, 0.1% formic acid in water / acetonitrile, linear gradient 10% to 95% acetonitrile
[4] = method [a]: HPLC/LC-MS on reversed phase at pH 2.7, 0.1% formic acid in water / acetonitrile, gradient 10% to 95% acetonitrile

Structure (SMILES)	log P [1, 3]	log P [1, 4]	% of efficacy (protection) (Septoria tritici) [%]	other results
CCOCCCNC(=O)C1(C)CC(c2cc3cc(Br)cnc3c(F)c2F)=NO1 (stereo not shown) [compound 14]	–	–	–	Log P ([1]; method [a]: HPLC/LC-MS on reversed phase at pH 2.7, 0.1% formic acid in water and acetonitrile, linear gradient 10% to 95% acetonitrile): 2.98^[a]; % of efficacy (protection) (Botrytis cinerea): 100%
CC1(C(=O)NCC2CCOC2)CC(c2ccc3ncc(Br)cc3c2)=NO1 (stereo not shown) [compound 127]	–	–	–	log P [1, 2]: 2.2^[a]; % of efficacy (protection) (Botrytis cinerea): 80%
CC1(C(=O)NCC2CCCO2)CC(c2ccc3ncc(Br)cc3c2)=NO1 (stereo not shown) [compound 130]	–	–	–	log P [1, 2]: 2.45^[a]; % of efficacy (protection) (Botrytis cinerea): 89%
CCn1cc(CNC(=O)C2(C)CC(c3ccc4ncc(SC)cc4c3)=NO2)c(C)n1 (stereo not shown) [compound 147]	–	–	–	log P [1, 2]: 2.09^[a]; % of efficacy (protection) (Botrytis cinerea): 88%
C#Cc1cnc2ccc(C3=NOC(C)(C(=O)NCc4cc(Cl)cc(Cl)c4)C3)cc2c1 (stereo not shown) [compound 193]	–	–	–	log P [1, 2]: 3.71^[a]; % of efficacy (protection) (Botrytis cinerea): 74%
CC1(C(=O)NCc2cnn(-c3ccccc3)c2)CC(c2ccc3ncc(Br)cc3c2)=NO1 (stereo not shown) [compound 202]	–	–	–	log P [1, 2]: 3.11^[a]; % of efficacy (protection) (Botrytis cinerea): 87%
CC(NC(=O)C1(C)CC(c2ccc3ncc(Br)cc3c2)=NO1)c1ccccc1 (stereo not shown) [compound 292]	3.46[a]	–	96	–
CC(NC(=O)C1(C)CC(c2ccc3ncc(Br)cc3c2)=NO1)c1ccsc1 (stereo not shown) [compound 295]	3.35[a]	–	80	–
C=Cc1cnc2ccc(C3=NOC(C)(C(=O)NC(C)C)C3)cc2c1 (stereo not shown) [compound 304]	2.20[a]	–	100	–
CC1(C(=O)NC2CCOCC2)CC(c2ccc3ncc(Br)cc3c2)=NO1 (stereo not shown) [compound 307]	2.27[a]	–	100	–
CC(NC(=O)C1(C)CC(c2ccc3ncc(Br)cc3c2)=NO1)c1nccs1 (stereo not shown) [compound 310]	2.56[a]	–	100	–
CCC(NC(=O)C1(C)CC(c2ccc3ncc(Br)cc3c2)=NO1)c1cn(CC)nc1C (stereo not shown) [compound 311]	2.77[a]	–	100	–
CC(C)c1noc(C(C)NC(=O)C2(C)CC(c3ccc4ncc(Br)cc4c3)=NO2)n1 (stereo not shown) [compound 331]	3.23[a]	–	83	–
COC1(C(=O)N(C)C)CC(c2ccc3ncc(Br)cc3c2)=NO1 (stereo not shown) [compound 396]	–	2.51[a]	97	–
COC1(C(=S)NC(C)C)CC(c2ccc3ncc(Br)cc3c2)=NO1 (stereo not shown) [compound 410]	–	3.69[a]	100	–
CCOC1(C(=O)NCc2cn(CC)nc2C)CC(c2ccc3ncc(Br)cc3c2)=NO1 (stereo not shown) [compound 416]	–	1.95[a]	100	–
C#Cc1cnc2ccc(C3=NOC(OC)(C(=O)N(OC)C(C)CC)C3)cc2c1 (stereo not shown) [compound 466]	–	3.31[a]	97	–
C#Cc1cnc2ccc(C3=NOC(OC)(C(=O)N(C(C)C)C4CC4)C3)cc2c1 (stereo not shown) [compound 467]	–	3.35[a]	97	–
C#Cc1cnc2ccc(C3=NOC(OC)(C(=O)N(OC)C(C)C)C3)cc2c1 (stereo not shown) [compound 468]	–	2.96[a]	100	–
CCn1cc(CNC(=O)C2(C)CC(c3ccc4nc(OC)c(I)cc4c3)=NO2)c(C)n1 (stereo not shown) [compound 472]	–	3.11[a]	75	–
CCn1cc(NC(=O)C2(C)CC(c3ccc4ncc(Br)cc4c3)=NO2)c(C)n1 (stereo not shown) [compound 489]	–	2.50[a]	93	–
C#Cc1cc2cc(C3=NOC(C)(C(=O)NCc4cn(CC)nc4C)C3)ccc2nc1OC (stereo not shown) [compound 490]	–	2.55[a]	88	–
C#Cc1cc2cc(C3=NOC(C)(C(=O)NCc4cn(CC)nc4C)C3)ccc2nc1C#N (stereo not shown) [compound 491]	–	2.39[a]	75	–
C#Cc1cnc2ccc(C3=NOC(CC)(C(=S)NCc4cn(CC)nc4C)C3)cc2c1 (stereo not shown) [compound 507]	–	3.31[a]	97	–
Cc1cnc(CNC(=O)C2(C)CC(c3cc(Cl)c4ncc(Br)cc4c3)=NO2)cn1 (stereo not shown) [compound 556]	2.64[a]	–	97	–
CCOCCCNC(=O)C1(C(C)O)CC(c2ccc3ncc(Br)cc3c2)=NO1 (stereo not shown) [compound 560]	2.27[a]	–	97	–
CC1(C)OCC(CNC(=O)C2(C(F)F)CC(c3ccc4ncc(I)cc4c3)=NO2)O1 (stereo not shown) [compound 618]	3.06[a]	–	93	–
C=CC1(C(=O)NCC2COC(C)(C)O2)CC(c2ccc3ncc(Br)cc3c2)=NO1 (stereo not shown) [compound 732]	–	–	100	log P ([1]; HPLC on reversed phase columns, method [a]: pH 2.7, 0.1% formic acid in water and acetonitrile, linear gradient 10% to 95% acetonitrile): 2.98[a]

Further lines, with some results ahead:

log P [1, 3]	log P [1, 4]	Structure (SMILES)	% of efficacy (protection) (Septoria tritici) [%]	other results
3.85[a]	–	CC(NC(=O)C1(C)CC(c2ccc3ncc(Br)cc3c2)=NO1)c1ccccc1Cl (stereo not shown) [compound 294]	70	–
3.00[a]	–	C#Cc1cnc2ccc(C3=NOC(C)(C(=O)NC(C)(C)C)C3)cc2c1 (stereo not shown) [compound 322]	98	–
2.94[a]	–	C#Cc1cnc2ccc(C3=NOC(C)(C(=O)NC(C)c4nc(C(C)C)no4)C3)cc2c1 (stereo not shown) [compound 329]	100	–
2.78[a]	–	C#Cc1cnc2ccc(C3=NOC(C)(C(=O)NC(C)C4CC4)C3)cc2c1 (stereo not shown) [compound 330]	100	–
2.20[a]	–	C#Cc1cnc2ccc(C3=NOC(C)(C(=O)NC(C)c4sc(C)nc4C)C3)cc2c1 (stereo not shown) [compound 333]	98	–
1.28[a]	–	C#Cc1cnc2ccc(C3=NOC(C)(C(=O)NC(C)c4ccncc4)C3)cc2c1 (stereo not shown) [compound 335]	78	–
3.85[a]	–	C#Cc1cnc2ccc(C3=NOC(C)(C(=O)NC(C)c4cccc5ccccc45)C3)cc2c1 (stereo not shown) [compound 339]	78	–
2.52[a]	–	C#Cc1cnc2ccc(C3=NOC(C)(C(=O)NC(CC)c4cn(CC)nc4C)C3)cc2c1 (stereo not shown) [compound 347]	100	–
3.42[a]	–	C#Cc1cnc2ccc(C3=NOC(C)(C(=O)NC(C)c4ccccc4Cl)C3)cc2c1 (stereo not shown) [compound 349]	94	–
3.06[a]	–	C#Cc1cnc2ccc(C3=NOC(C)(C(=O)NC(C)c4ccccc4)C3)cc2c1 (stereo not shown) [compound 350]	100	–
2.52[a]	–	C#CCCNC(=O)C1(C)CC(c2ccc3ncc(Br)cc3c2)=NO1 (stereo not shown) [compound 353]	94	–
3.94[a]	–	C#Cc1cnc2ccc(C3=NOC(C)(C(=O)NC(c4cccc(Cl)c4)C(F)(F)F)C3)cc2c1 (stereo not shown) [compound 357]	78	–
1.37[a]	–	C#Cc1cnc2ccc(C3=NOC(C)(C(=O)NC(CN4CCCC4)C4CC4)C3)cc2c1 (stereo not shown) [compound 361]	78	–
–	2.09[a]	CCOc1cnc2ccc(C3=NOC(C)(C(=O)NCc4cn(CC)nc4C)C3)cc2c1 (stereo not shown) [compound 417]	100	–
–	1.44[a]	C#Cc1cnc2ccc(C3=NOC(OC)(C(=O)NCC(O)CO)C3)cc2c1 (stereo not shown) [compound 473]	75	–
–	2.52[a]	C#Cc1cnc2ccc(C3=NOC(OC)(C(=O)NC(C)(C)c4ccon4)C3)cc2c1 (stereo not shown) [compound 509]	97	–
